Assay results reported in patent US20250325684A1, “POTENT ANTI-CANCER CYCLOTIDES” (University of Southern California, priority 2022, published 2025).
Bridge positions count the residues as written; N and C are the ends. Peptide text beside a SMILES is read from it.

How the values were obtained:
[1] = test system: BxPC-3; assay: MTT cell viability, BxPC-3 cells; type: cell-based, human; settings: BxPC-3 pancreatic ductal adenocarcinoma, p53 Mutant
Procedure: (§1) Cell viability assay in several human cancer cell lines (See Tables 1 to 10). Cell lines were cultured in RPMI 1640 (or recommended medium when indicated) medium supplemented with 10% fetal calf serum, penicillin (50 IU/mL) and streptomycin ([…]) at 37° C. in 5% CO2. Cell viability studies was carried using the MTT (3-(4,5-dimethylthiazol-2-yl)-2,5-diphenyltetrazolium bromide) assay as previously described (31). Briefly, ≈2×10^3 CRC cells were be seeded in 96-well microtiter plates in 100 μL RPMI 1640 in the presence of 10% calf serum. […] After 1 h, 210 μL/well of full complemented media was added, the cells were grown for 48 h and then treated with 20 μL of a solution of MTT (5 mg/mL) for 2 h. The medium was discarded and DMSO ([…]) was added to each well and incubated with gentle shaking for 20 min at room temperature. The absorbance at 595 nm of the solution is analyzed using a Tecan Genios Multifunctional Microplate Reader (Tecan System Inc) and the background at 670 nm subtracted. RNA-Seq analysis was performed using state-of-the-art bioinformatics tools. Briefly, raw RNA-Seq reads were mapped to human genome (hg38) using STAR aligner (v2.7.3a). Gencode Release 36 reference was used for annotation. Transcript and gene expression levels were quantified using the IsoEM (37) with default parameters. Counts per million (CPM) method is used for normalization. Differential expression was done using DESeq2 with default parameters. Genes involved in different biological pathways (human) were searched from Geneontology (http://geneontology.org/). Bioinformatics results can be validated by using Partek Flow (v10.0.21.0912), a bioinformatics pipeline developed by Zymo Research (https://www.zymoresearch.com/).
(§2) Cell viability was evaluated using the MTT assay as described above.

[2] = test system: DU145; assay: MTT cell viability, DU145 cells; type: cell-based; settings: DU145 prostate carcinoma, p53 Mutant, read-out: Cell viability, Human Prostate Cancer Cells
Procedure: (§3) Cell viability assay in several human cancer cell lines (See Tables 1 to 10). Cell lines were cultured in RPMI 1640 (or recommended medium when indicated) medium supplemented with 10% fetal calf serum, penicillin (50 IU/mL) and streptomycin ([…]) at 37° C. in 5% CO2. Cell viability studies was carried using the MTT (3-(4,5-dimethylthiazol-2-yl)-2,5-diphenyltetrazolium bromide) assay as previously described (31). Briefly, ≈2×10^3 CRC cells were be seeded in 96-well microtiter plates in 100 μL RPMI 1640 in the presence of 10% calf serum. After 24 h incubation the cells were washed with PBS and treated with 30 μL/well of PBS or RPMI 1640 (or recommended) media containing cyclotides MCo-52, MCoTI-I (used as negative control), nutlin-3a (used as positive control) or MI-77301 (used as positive control for p53-mutated or p53-null cells) at the indicated doses for 1 h at 37° C. in 5% CO2. After 1 h, 210 μL/well of full complemented media was added, the cells were grown for 48 h and then treated with 20 μL of a solution of MTT (5 mg/mL) for 2 h. The medium was discarded and DMSO ([…]) was added to each well and incubated with gentle shaking for 20 min at room temperature. The absorbance at 595 nm of the solution is analyzed using a Tecan Genios Multifunctional Microplate Reader (Tecan System Inc) and the background at 670 nm subtracted. RNA-Seq analysis was performed using state-of-the-art bioinformatics tools. Briefly, raw RNA-Seq reads were mapped to human genome (hg38) using STAR aligner (v2.7.3a). Gencode Release 36 reference was used for annotation. Transcript and gene expression levels were quantified using the IsoEM (37) with default parameters. Counts per million (CPM) method is used for normalization. Differential expression was done using DESeq2 with default parameters. Genes involved in different biological pathways (human) were searched from Geneontology (http://geneontology.org/). Bioinformatics results can be validated by using Partek Flow (v10.0.21.0912), a bioinformatics pipeline developed by Zymo Research (https://www.zymoresearch.com/).
(§4) Tables 1 through 10 show in vitro activity of cyclotide MCo-52-2-cTAT against different human cancer cell lines, some with null-, mutated, or wildtype p53 phenotypes. Cell viability was evaluated using the MTT assay as described above.

[3] = test system: SKOV 3; assay: MTT cell viability, SKOV 3 ovarian cells; type: cell-based, human; settings: p53 Mutant
Procedure: as §3, §4

[4] = test system: ES-2; assay: MTT cell viability, ES-2 ovarian cells; type: cell-based, human; settings: p53 Mutant
Procedure: as §3, §4

[5] = test system: CFPAC-1; assay: MTT cell viability, CFPAC-1 cells; type: cell-based, human; settings: CFPAC-1 pancreatic ductal adenocarcinoma, p53 Mutant
Procedure: as §1, §2

[6] = test system: SW1990; assay: MTT cell viability, SW1990 cells; type: cell-based, human; settings: SW1990 pancreatic adenocarcinoma, p53 Mutant (Deletion)
Procedure: as §1, §2

[7] = test system: SW626; assay: MTT cell viability, SW626 cells; type: cell-based, human; settings: SW626 ovarian cells, p53 Mutant; MTT (Table 7); read-out: Cell Viability Assay
Procedure: as §1, §2

[8] = test system: Capan-1; assay: MTT cell viability, Capan-1 cells; type: cell-based, human; settings: Capan-1 pancreatic ductal adenocarcinoma, p53 Mutant
Procedure: as §1, §2

[9] = test system: PANC-1; assay: MTT cell viability, PANC-1 cells; type: cell-based, human; settings: PANC-1 pancreatic ductal adenocarcinoma, p53 Mutant
Procedure: as §1, §2

[10] = test system: MIA PaCa-2; assay: MTT cell viability, MIA PaCa-2 cells; type: cell-based, human; settings: MIA PaCa-2 pancreatic ductal adenocarcinoma, p53 Mutant
Procedure: as §1, §2

[11] = test system: AsPC-1; assay: MTT cell viability, AsPC-1 cells; type: cell-based, human; settings: AsPC-1 pancreatic ductal adenocarcinoma, p53 Mutant
Procedure: as §1, §2

[12] = test system: HPAF-II; assay: MTT cell viability, HPAF-II cells; type: cell-based, human; settings: HPAF-II pancreatic ductal adenocarcinoma, p53 Mutant
Procedure: as §1, §2

[13] = test system: PC-3; assay: MTT cell viability, PC-3 cells; type: cell-based; settings: PC-3 prostate carcinoma, p53 Mutant, read-out: Cell viability, Human Prostate Cancer Cells
Procedure: as §3, §4

[14] = test system: NIHOVCAR3; assay: MTT cell viability, NIHOVCAR3 ovarian cells; type: cell-based, human; settings: p53 Mutant
Procedure: as §3, §4

[15] = test system: A2780; assay: MTT cell viability, A2780 ovarian cells; type: cell-based, human; settings: p53 WT
Procedure: as §3, §4

[16] = test system: LNCaP; assay: MTT cell viability, LNCaP cells; type: cell-based; settings: LNCaP prostate carcinoma, p53 WT, read-out: Cell viability, Human Prostate Cancer Cells
Procedure: as §3, §4

[17] = test system: NCl-A549; assay: MTT cell viability, NCl-A549 cells; type: cell-based, human; settings: Homo sapiens, NCl-A549 lung adenocarcinoma, p53 WT
Procedure: as §1, §2

[18] = test system: SW480; assay: MTT cell viability, SW480 cells; type: cell-based, human; settings: Homo sapiens, SW480 colon adenocarcinoma, p53 Mutant
Procedure: as §1, §2

[19] = test system: U937; assay: MTT cell viability, U937 cells; type: cell-based, human; settings: Homo sapiens, U-937, U937 adult acute monocytic leukemia, p53 Mutant
Procedure: as §1, §2

[20] = test system: NCl-H522; assay: MTT cell viability, NCl-H522 cells; type: cell-based, human; settings: Homo sapiens, NCl-H522 lung adenocarcinoma, p53 Mutant (Deletion)
Procedure: as §1, §2

[21] = test system: HCT116^−/−; assay: MTT cell viability, HCT116 p53-null cells; type: cell-based, human; settings: Homo sapiens, HCT-116
Procedure: as §1, with “Counts per million (CPM) method is used for normalization. Differential expression was done using DESeq2 with default parameters. Genes involved in different biological pathways (human) were searched from Geneontology (http://geneontology.org/). Bioinformatics results can be validated by using Partek Flow (v10.0.21.0912), a bioinformatics pipeline developed by Zymo Research (https://www.zymoresearch.com/).” left out
as §2

[22] = test system: MOLM-13; assay: MTT cell viability, MOLM-13 cells; type: cell-based, human; settings: Homo sapiens, MOLM-13 adult acute myeloid leukemia, p53 WT
Procedure: as §1, §2

[23] = test system: Caco-2; assay: MTT cell viability, Caco-2 cells; type: cell-based, human; settings: Homo sapiens, Caco-2 colon adenocarcinoma, p53 Mutant
Procedure: as §1, §2

[24] = test system: MV4-11; assay: MTT cell viability, MV4-11 cells; type: cell-based, human; settings: Homo sapiens, MV4-11 childhood acute monocytic leukemia, p53 WT
Procedure: as §1, §2

[25] = test system: Jurkat; assay: MTT cell viability, Jurkat cells; type: cell-based, human; settings: Homo sapiens, Jurkat childhood T acute lymphoblastic leukemia, p53 Mutant
Procedure: as §1, §2

[26] = test system: NCl-H526; assay: MTT cell viability, NCl-H526 cells; type: cell-based, human; settings: Homo sapiens, NCl-H526 lung small cell carcinoma, p53 Null
Procedure: as §1, §2

[27] = test system: NCl-H69; assay: MTT cell viability, NCl-H69 cells; type: cell-based, human; settings: Homo sapiens, NCl-H69 lung small cell carcinoma, p53 Mutant
Procedure: as §1, §2

[28] = test system: HCT116^+/+; assay: MTT cell viability, HCT116 p53 wild-type cells; type: cell-based, human; settings: Homo sapiens, HCT-116
Procedure: as §1, §2

[29] = test system: MSCLC 494; assay: MTT cell viability, MSCLC 494 cells; type: cell-based; settings: Mus musculus, MSCLC 494 murine small cell lung cancer
Procedure: as §1, §2

[30] = test system: NCl-H23; assay: MTT cell viability, NCl-H23 cells; type: cell-based, human; settings: Homo sapiens, NCl-H23 lung adenocarcinoma, p53 Mutant
Procedure: as §1, §2

[31] = test system: NCl-H1299; assay: MTT cell viability, NCl-H1299 cells; type: cell-based, human; settings: Homo sapiens, NCl-H1299 lung large cell carcinoma, p53 Null
Procedure: as §1, §2

CC[C@H](C)[C@@H]1NC(=O)[C@@H]2CSSC[C@@H]3NC(=O)[C@H](C(C)C)NC(=O)CNC(=O)CNC(=O)[C@H](CC(=O)O)NC(=O)[C@H](CO)NC(=O)CNC(=O)[C@H](CO)NC(=O)CNC(=O)[C@@H]4CSSC[C@H](NC(=O)[C@H](CC(=O)O)NC(=O)[C@H](CO)NC(=O)[C@H](CC(=O)O)NC(=O)[C@H](CCCNC(=N)N)NC(=O)[C@H](CCCNC(=N)N)NC(=O)[C@H](CSSC[C@H](NC1=O)C(=O)N[C@@H](CCCNC(=N)N)C(=O)N[C@@H](Cc1c[nH]cn1)C(=O)N[C@@H](CC(=O)O)C(=O)N[C@@H](CO)C(=O)N[C@@H](Cc1ccc(O)cc1)C(=O)N4)NC(=O)[C@H](CC(C)C)NC(=O)[C@H](CC(C)C)NC(=O)[C@H](Cc1ccc(O)cc1)NC(=O)[C@H](CC(C)C)NC(=O)[C@H](CC(N)=O)NC(=O)[C@@H]1CCCN1C3=O)C(=O)N1CCC[C@H]1C(=O)NCC(=O)N[C@@H](C)C(=O)N2 [Cyclotide 52-2] (cyclo(ACICRHDSYCGSGSDGGVCPNLYLLCRRDSDCPG); disulfide 2-19, 4-26, 10-32)
EC50 [1]: > 100 µM
EC50 [2]: > 100 µM
EC50 [3]: > 100 µM
EC50 [4]: > 100 µM
EC50 [5]: > 100 µM
EC50 [6]: > 100 µM
EC50 [7]: > 100 µM
EC50 [8]: > 100 µM
EC50 [9]: > 100 µM
EC50 [10]: > 100 µM
EC50 [11]: > 100 µM
EC50 [12]: > 100 µM
EC50 [13]: > 100 µM
EC50 [14]: > 100 µM
EC50 [15]: > 100 µM
EC50 [16]: > 100 µM

CC(C)(C)C[C@@H]1N[C@@H](C(=O)N[C@H]2CC[C@H](O)CC2)[C@H](c2cccc(Cl)c2F)[C@]12C(=O)Nc1cc(Cl)ccc12 [MI-77301]
EC50 ([1]; Homo sapiens): 17.3 ± 2.3 µM
EC50 [17]: 15.8 ± 2.2 µM
EC50 [18]: 26.1 ± 3.3 µM
EC50 [19]: 9.6 ± 2.2 µM
EC50 [20]: 22.7 ± 2.8 µM
EC50 [21]: 23.7 ± 1.9 µM
EC50 ([5]; Homo sapiens): 22.1 ± 1.6 µM
EC50 [22]: 0.7 ± 0.1 µM
EC50 [23]: > 50 µM
EC50 [24]: 0.3 ± 0.03 µM
EC50 [25]: 12.1 ± 1.6 µM
EC50 [26]: 9.7 ± 1.8 µM
EC50 [27]: 31.7 ± 5.2 µM
EC50 ([9]; Homo sapiens): 12.7 ± 1.6 µM
EC50 ([10]; Homo sapiens): 10.5 ± 1.6 µM
EC50 ([12]; Homo sapiens): 6.7 ± 1 µM
EC50 [28]: 2.7 ± 0.2 µM
EC50 [29]: 15.8 ± 2.2 µM
EC50 [30]: 10.7 ± 1.9 µM
EC50 [31]: 21.5 ± 2.5 µM
